The test has as its target T1, TLR9 (Homo sapiens, UniProt Q9NR96).
T1 construct: expressed in transfected cells; host or cells: HEK293
T1 sequence (Q9NR96 26-1032): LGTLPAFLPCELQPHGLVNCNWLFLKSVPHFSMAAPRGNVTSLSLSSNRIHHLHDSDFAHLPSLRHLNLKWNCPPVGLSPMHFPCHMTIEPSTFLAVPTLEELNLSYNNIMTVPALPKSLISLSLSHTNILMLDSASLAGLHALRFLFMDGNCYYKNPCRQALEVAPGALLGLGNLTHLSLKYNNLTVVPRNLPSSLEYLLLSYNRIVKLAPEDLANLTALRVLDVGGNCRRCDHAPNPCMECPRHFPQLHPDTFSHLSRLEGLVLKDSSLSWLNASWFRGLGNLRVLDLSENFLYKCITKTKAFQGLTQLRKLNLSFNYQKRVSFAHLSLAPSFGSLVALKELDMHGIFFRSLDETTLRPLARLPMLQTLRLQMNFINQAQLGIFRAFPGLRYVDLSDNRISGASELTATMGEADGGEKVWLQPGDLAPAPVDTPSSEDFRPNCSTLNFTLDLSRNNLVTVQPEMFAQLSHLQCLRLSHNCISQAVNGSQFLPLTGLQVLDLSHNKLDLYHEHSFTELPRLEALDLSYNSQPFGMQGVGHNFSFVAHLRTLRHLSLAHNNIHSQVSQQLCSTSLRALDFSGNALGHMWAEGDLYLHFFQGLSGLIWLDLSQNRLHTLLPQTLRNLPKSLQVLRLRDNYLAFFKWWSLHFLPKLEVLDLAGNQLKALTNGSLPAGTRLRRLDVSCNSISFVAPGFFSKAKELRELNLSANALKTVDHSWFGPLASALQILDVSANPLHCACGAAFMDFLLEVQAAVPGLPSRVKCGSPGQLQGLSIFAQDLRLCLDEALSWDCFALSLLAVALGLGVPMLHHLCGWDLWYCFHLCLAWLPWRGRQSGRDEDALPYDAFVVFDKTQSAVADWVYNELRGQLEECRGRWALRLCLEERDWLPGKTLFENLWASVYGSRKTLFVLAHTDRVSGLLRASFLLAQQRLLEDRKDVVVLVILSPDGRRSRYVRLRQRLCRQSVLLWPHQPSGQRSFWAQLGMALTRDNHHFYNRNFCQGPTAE
The test can be described thus: TLR9 screening of (+)-morphinan library, SEAP reporter in HEK293 cells expressing TLR9. To be noted: activator ODN2006; for OD 650 nm (mean ± sd): control (no activator) 0.14, activator 1.42 OD; for inhibition at 0.1 µM: HEK293, read-out: % Inhibition (mean), 100 nM; for inhibition at 10 µM: HEK293, read-out: % Inhibition (mean), 10 μM. In kind it is cell-based. Summed up: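 HEK293 cells expressing TLR9 with an NF-κB-inducible SEAP reporter were preincubated with compound at 10 μM and 100 nM for 30 min at 37 °C, then stimulated with ODN2006. SEAP was read as OD 650 nm after 16-20 h, in triplicate.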

What is called inhibition is the change of the read-out against control, counted positive when it falls. For `C=C1CC[C@]2(O)[C@@H]3Cc4ccc(O)c5c4[C@]2(CCN3CC2CC2)[C@@H]1O5` [II-77], the inhibition at 0.1 µM was 13% and the inhibition at 10 µM came to 37%. The “OD 650 nm (mean ± sd)” value (100 nM) worked out at 1.24 ± 0.04 OD. In addition, the “OD 650 nm (mean ± sd)” value (10 μM) stood at 0.98 ± 0.02 OD.
As to `CO[C@]12CCC(=O)[C@H]3Oc4c(O)ccc5c4[C@]31CCN(CC1CC1)[C@H]2C5` [II-79], the inhibition at 0.1 µM is 25% and the inhibition at 10 µM stood at 25%. Moreover, under “100 nM”, the “OD 650 nm (mean ± sd)” value was determined as 1.07 ± 0.03 OD. Moreover, the “OD 650 nm (mean ± sd)” value (10 μM) was 1.06 ± 0.11 OD.
As for `Oc1ccc2c3c1O[C@@H]1[C@H](O)CC[C@]4(O)[C@H](C2)N(CC2CCC2)CC[C@@]314` [II-82], the inhibition at 0.1 µM was found to be 4% and the inhibition at 10 µM stood at 65%. Moreover, the “OD 650 nm (mean ± sd)” value (100 nM) is recorded as 1.37 ± 0.02 OD. The “OD 650 nm (mean ± sd)” value (10 μM) was found to be 0.49 ± 0.03 OD.
Take `COc1ccc2c3c1O[C@@H]1C(OC(C)=O)=CC[C@]4(O)[C@H](C2)N(C(C)=O)CC[C@@]314` [II-83]: the inhibition at 0.1 µM amounted to 1% and the inhibition at 10 µM was determined as 22%. Further, the “OD 650 nm (mean ± sd)” value (100 nM) is listed as 1.40 ± 0.13 OD. Further, the “OD 650 nm (mean ± sd)” value (10 μM) is given as 1.11 ± 0.09 OD.
As to `COc1ccc2c3c1O[C@@H]1C(=O)CC[C@]4(O)[C@H](C2)N(C(C)=O)CC[C@@]314` [II-84], the inhibition at 0.1 µM is -1% and the inhibition at 10 µM was -6%. Moreover, the “OD 650 nm (mean ± sd)” value (100 nM) is listed as 1.44 ± 0.06 OD. The “OD 650 nm (mean ± sd)” value (10 μM) is recorded as 1.51 ± 0.08 OD.
Take `COc1ccc2c3c1O[C@@H]1C(=O)CC[C@@H]4[C@H](C2)N(C(=O)C2CCC2)CC[C@@]314` [II-85]: the inhibition at 0.1 µM was -2% and the inhibition at 10 µM was -2%. The “OD 650 nm (mean ± sd)” value (100 nM) was found to be 1.45 ± 0.04 OD. Besides, the “OD 650 nm (mean ± sd)” value (10 μM) came to 1.45 ± 0.04 OD.
Consider `COC1=CC=C2[C@@H]3Cc4c(Br)cc(OCc5ccccc5)c5c4[C@]2(CCN3CC2CC2)[C@@H]1O5` [II-86], for which the inhibition at 0.1 µM amounted to 19% and the inhibition at 10 µM amounted to 91%. The “OD 650 nm (mean ± sd)” value (100 nM) is on record as 1.15 ± 0.11 OD. Besides, the “OD 650 nm (mean ± sd)” value (10 μM) was found to be 0.13 ± 0.03 OD.
Regarding `COC1=CCC2[C@@H]3Cc4ccc(OC)c5c4[C@]2(CCN3CC2CC2)[C@@H]1O5` (stereo partly shown) [II-87], the “% Inhibition (mean)” value runs as follows: (100 nM, 0.1 µM) 10%; (10 μM) 69%. The “OD 650 nm (mean ± sd)” value came to 1.28 ± 0.06 OD (100 nM) and 0.45 ± 0.01 OD (10 μM).
For `O=C1CC[C@@H]2[C@@H]3Cc4ccc(OCc5ccccc5)c5c4[C@]2(CCN3CC2CC2)[C@@H]1O5` [II-88], the inhibition at 0.1 µM stood at 21% and the inhibition at 10 µM came out at 91%. Besides, the “OD 650 nm (mean ± sd)” value (100 nM) is recorded as 1.12 ± 0.15 OD. Also, the “OD 650 nm (mean ± sd)” value (10 μM) is recorded as 0.13 ± 0.01 OD.
Taken in the same sequence, the figures for `C=CCN1CC[C@@]23c4c5ccc(OC)c4O[C@@H]2C2(CC[C@@H]3[C@@H]1C5)OCCO2` [II-89] were -8%, 24%, 1.53 ± 0.10 OD and 1.08 ± 0.02 OD.
Take `[O-][N+]1(CC2CC2)CC[C@@]23c4c5ccc(O)c4O[C@@H]2[C@H](O)CC[C@]3(O)[C@@H]1C5` (stereo partly shown) [II-90]: the inhibition at 0.1 µM came to 2% and the inhibition at 10 µM was determined as 88%. Besides, under “100 nM”, the “OD 650 nm (mean ± sd)” value was 1.39 ± 0.03 OD. Further, for the setting “10 μM”, the “OD 650 nm (mean ± sd)” value is given as 0.17 ± 0.05 OD.
Taken in the same sequence, the figures for `CCCNC1CCC2C3Cc4ccc(OC)c5c4[C@]2(CCN3C)C1O5` (stereo partly shown) [II-91] were 92%, 93%, 0.12 ± 0.01 OD and 0.09 ± 0.01 OD.
In the case of `COC(=O)[C@@H](C)NC1CCC2C3Cc4ccc(OC)c5c4[C@]2(CCN3C)C1O5` (stereo partly shown) [II-92], the inhibition at 0.1 µM was 23% and the inhibition at 10 µM came to 48%. The “OD 650 nm (mean ± sd)” value (100 nM) came out at 1.09 ± 0.03 OD. Moreover, where the note is “10 μM”, the “OD 650 nm (mean ± sd)” value amounted to 0.73 ± 0.06 OD.

For the origin of these results see patent US10363251B2, “(+)-morphinans as antagonists of toll-like receptor 9 and therapeutic uses thereof” (Mallinckrodt LLC, priority 2009, dated 2019).
